The values that follow come from US20030049807A1, “Micro-organism possessing enantioselective and regioselective nitrile hydratase/amidase activities” (priority 2001, published 2003).

Assay [1] deals with nitrile-hydratase/amidase activity of the wild type strain. The assay is described as follows: Nitrile-hydratase/amidase activity of the wild type parent strain after induction with valeronitrile. As to conditions: wild type strain sub-cultured with butyronitrile, induced with valeronitrile. It counts as cell-based, Agrobacterium radiobacter. How it is done: The parent strain, characterised as Agrobacterium radiobacter, was isolated from a crude bacterial extract with antibiotic activity. In order to determine activity towards nitrilic substrates, it was sub-cultured in medium containing butyronitrile and after some passages and induction with valeronitrile, a weak nitrile-hydratase/amidase activity was measured on benzoylphenylpropionitrile (BPN) of the wild type strain as such selected. To obtain a semi-constitutive strain, an aliquot of wild type parent strain was subjected to a treatment of mutagenesis, constituted by two treatment cycles with ethylmethanesulphonate, one cycle with nitrosoguanidine and two of mutagenesis with UV irradiation.

The test system of assay [2] is nitrile hydratase/amidase activity of bacterial pellet of strain NCIMB 41108. Kind of assay: Enzymatic activity of the whole-cell biocatalyst (wet bacterial pellet) towards nitrile/amide substrates, HPLC or GC. It counts as cell-based, Agrobacterium radiobacter 30″60. Conditions: 30° C.; for enzymatic activity: 50 mg substrate, 250 mg wet pellet. How it is done: The enzymatic activity was evaluated using a bacterial pellet obtained after fermentation for 48 hours in fermentation medium as described below. Briefly, the culture was amplified from a single colony to begin with in a small volume of inoculating medium and then, for preparative purposes, in 100 ml of fermentation medium.
Fermentation medium: MgSO4 (0.5 g l^−1), ,CaCl2.6H2O (0.1 g l^−1), FeSO4 (0.4 g l^−1), CoCl2 (0.1 g l^−1), MnSO4 (0.01 g l^−1), (NH4)2SO4 (5 g l^−1), Yeast Extract (10 g l^31 1). The inducer, or the inducers, were added to the fermentation medium alone or in combination, sterilely, to a final concentration comprised of between 0.5-5 g/L. In particular, if not stated differently, valeronitrile, N-butyronitrile, isobutyronitrile and ε-caprolactam were used at a concentration respectively of 2.5 g/l and added in a single solution at the start of the process. To measure the basal activity of the strain 41108, no inducer was added to the fermentation medium.
Inoculation. […]
Reaction scheme. […] At preset time intervals, aliquots of the mixture were sterilely removed with a syringe, using a Minisart RC 25 filter 0,22 μm (Sartorius, Germany) and directly analysed by HPLC. The enzymatic activity was determined by the mean activity measured in the initial, linear phase of the conversion curve, relative to the wet weight of the bacterial paste. […]
Evaluation of the conversion percentages and of the enantiomeric excess. The percentage conversion of the substrate was measured by reverse phase HPLC using a reverse phase column of dimensions: 250×4.6 mm; 10 μm (Lichrosorb 10 RP18), and phosphate buffer at various percentages (10 mM, pH 2.5 e 3.5) with acetonitrile at 40 or 50% depending on the molecule to be detected. […] The e.e. values of the reaction products obtained from benzoylphenylpropionitrile were determined by HPLC fitted with a chiral column (dimensions: 100×4 mm; Chromtech AGP-column) and phosphate buffer used as eluent (10 mM, pH 7.0) with isopropanol (1%, v/v) and dimethyloctylamine (0,02%, v/v). […]

As to `CC(C#N)c1cccc(C(=O)c2ccccc2)c1` (racemic) [benzoylphenylpropionitrile, 2-(3-benzoylphenyl)propionitrile], the nitrile-hydratase/amidase activity entry in assay [1] is “weak”.
For `CC(C#N)c1ccc(-c2ccccc2)c(F)c1` (stereo not drawn) [2-fluoro-α-methyl[1,1′-diphenyl]-4-acetonitrile], in assay [2] (pellet induced with valeronitrile 0,2%, 24 hours), the enzymatic activity is on record as 0.26 IU g^−1 of wet cells.
In the case of `CC(C#N)c1cccc(Oc2ccccc2)c1` (stereo not drawn) [α-methyl-3-phenoxibenzen-acetonitrile], in assay [2] (pellet induced with valeronitrile 0,25%, 1 hour), the enzymatic activity was 5.23 IU g^−1 of wet cells.
In the case of `CC(C#N)c1ccccc1` (stereo not drawn) [α-methylbenzyl cyanide], the “rate of transformation, times higher” value in assay [2] (pellet induced with valeronitrile and ε-caprolactam 0,25%, comparator not given) was “approximately 20 times”.
